Measurements as given in patent US20120029177A1, “HETEROCYCLE-AMINO ACID DERIVATIVES FOR TARGETING CANCER TISSUE AND RADIOACTIVE OR NON-RADIOACTIVE LABELED COMPOUNDS THEREOF” (SNU R&DB FOUNDATION, priority 2009, published 2012).

Key:
[1] = test system: SNU-C4 xenografted nude mice; assay: Biodistribution study in SNU-C4 xenografted nude mice after intravenous injection; type: in vivo, mouse; details: for % ID/g Tumor: SNU-C4 tumor
Method: Human colon cancer cell line SNU-C4 was cultured in RPMI1640 media containing 10% fetal bovine serum and harvested using trypsin. The cells were washed using 10 mL PBS and centrifugation at 3,000 rpm. Each nude mouse was injected with 2×10^5 cells/0.1 mL on the right shoulder subcutaneously. On 13 days post-injection, each 10 μCi/0.1 mL of ^68Ga labeled agent was injected into the xenografted mice through the tail vein. The injected mice were sacrificed at 10 min, 30 min, 1 hr, and 2 hr, cancer, blood, muscle, heart, liver, spleen, stomach, intestine, and bone were obtained, weighed, and their radioactivities were counted. The results were expressed as percentages of injected dose per gram tissue (% ID/g).

[2] = test system: CT-26 cells; assay: In vitro cell uptake, CT-26 (FIG. 1b); type: cell-based, mouse; details: controls ^68Ga-DO2A, ^68Ga-DO3A
Method: Human colon cancer cell line SNU-C4 was purchased from Korea Cell Line Bank (KCLB). Human thyroid cell line ARO, human liver cancer cell line Hep3B, human glioma cell line U251MG and U87MG, and mouse colon cell line CT-26 were purchased from American Type Culture Collection (ATCC). SNU-C4 and ARO were culture in RPMI1640 (Welgene Inc., Korea) and Hep3B, U251 MG, U87MG, and CT-26 were cultured in DMEM (Welgene Inc., Korea). Penicillin, streptomycin and amphotericin B (10,000 IU/mL, 10 mg/mL and 25 μg/mL, respectively, Mediatech Inc., U.S.A.) 1% mixture and fetal bovine serum (Welgene Inc., Korea) were added to all cell culture media. Cell culture was done in 37° C. incubator with supply of 5% CO2.
About 1.8×10^5 cells/mL CT-26 and 1.2×10^5 cells/mL U87MG were put into 24-well incubation plate and incubated for 20 hr. When the each well was about 80% confluent with cells, 296 kBq/0.5 mL of ^68Ga labeled agent was added to each well. Culture supernatants were discarded at each time point and cells were washed with ice-cooled Hank's balanced salt solution (HBSS, pH7.3, Gibco, U.S.A.) 2 times. The cells were dissolved by 0.5% sodium dodecylsulfate (SDS), recovered and counted using a gamma counter (Packard, Can berra Co., U.S.A.). Total protein amount in each sample was measured by bicinchonic acid (BCA, Pierce, U.S.A.) method.

[3] = test system: SNU-C4 xenografted nude mice; assay: PET imaging of tumor xenografted mice; type: in vivo, mouse; details: PET at 1 and 2 hr post-injection, FIG. 2
Method: Human colon cancer cell line SNU-C4 was cultured in RPMI1640 media containing 10% fetal bovine serum and harvested using trypsin. The cells were washed using 10 mL PBS and centrifugation at 3,000 rpm. Each nude mouse was injected with 2×10^5 cells/0.1 mL on the right shoulder subcutaneously. On 14 days post-injection, each 10 μCi/0.1 mL of ^68Ga labeled agent was injected into the xenografted mice through the tail vein. The injected mice were anesthetized using 2% isoflurane, PET images were obtained at 1 and 2 hr post-injection using rodent R4, microPET scanner (Concorde Microsystem Inc.). The images were analyzed using ASIPro software (Concorde Microsystem Inc.).

[4] = 10 min after intravenous injection
[5] = 30 min after intravenous injection
[6] = 1 hr after intravenous injection
[7] = 2 hr after intravenous injection

% ID/g Tumor [1, 4]: 2.88 ± 0.39 % ID/g
% ID/g Tumor [1, 5]: 2.30 ± 0.53 % ID/g
% ID/g Tumor [1, 6]: 1.05 ± 0.33 % ID/g
% ID/g Tumor [1, 7]: 1.08 ± 0.18 % ID/g
tumor uptake compared with the control heterocyclic compound (in words) ([1]; SNU-C4 xenografted nude mice, 10 min to 2 hr): always higher than that of ^68Ga-DO2A
% ID/g Blood [1, 4]: 7.75 ± 0.97 % ID/g
% ID/g Blood [1, 5]: 5.26 ± 1.36 % ID/g
% ID/g Blood [1, 6]: 3.12 ± 0.89 % ID/g
% ID/g Blood [1, 7]: 1.94 ± 0.24 % ID/g
% ID/g Bone [1, 4]: 2.60 ± 0.56 % ID/g
% ID/g Bone [1, 5]: 2.22 ± 0.49 % ID/g
% ID/g Bone [1, 6]: 1.57 ± 0.52 % ID/g
% ID/g Bone [1, 7]: 1.06 ± 0.52 % ID/g
% ID/g Heart [1, 4]: 1.98 ± 0.06 % ID/g
% ID/g Heart [1, 5]: 1.19 ± 0.34 % ID/g
% ID/g Heart [1, 6]: 0.79 ± 0.34 % ID/g
% ID/g Heart [1, 7]: 0.45 ± 0.10 % ID/g
% ID/g Intestine [1, 4]: 1.91 ± 0.33 % ID/g
% ID/g Intestine [1, 5]: 1.40 ± 0.38 % ID/g
% ID/g Intestine [1, 6]: 3.91 ± 2.96 % ID/g
% ID/g Intestine [1, 7]: 0.77 ± 0.03 % ID/g
% ID/g Kidney [1, 4]: 13.33 ± 4.30 % ID/g
% ID/g Kidney [1, 5]: 14.50 ± 8.89 % ID/g
% ID/g Kidney [1, 6]: 4.71 ± 2.26 % ID/g
% ID/g Kidney [1, 7]: 3.99 ± 0.54 % ID/g
% ID/g Liver [1, 4]: 1.74 ± 0.25 % ID/g
% ID/g Liver [1, 5]: 1.46 ± 0.27 % ID/g
% ID/g Liver [1, 6]: 1.39 ± 0.47 % ID/g
% ID/g Liver [1, 7]: 0.99 ± 0.04 % ID/g
% ID/g Lung [1, 4]: 8.45 ± 0.98 % ID/g
% ID/g Lung [1, 5]: 8.23 ± 2.41 % ID/g
% ID/g Lung [1, 6]: 4.21 ± 1.47 % ID/g
% ID/g Lung [1, 7]: 3.23 ± 0.49 % ID/g
% ID/g Muscle [1, 4]: 2.08 ± 0.43 % ID/g
% ID/g Muscle [1, 5]: 1.81 ± 0.77 % ID/g
% ID/g Muscle [1, 6]: 0.87 ± 0.40 % ID/g
% ID/g Muscle [1, 7]: 0.49 ± 0.08 % ID/g
% ID/g Spleen [1, 4]: 1.61 ± 0.26 % ID/g
% ID/g Spleen [1, 5]: 1.30 ± 0.29 % ID/g
% ID/g Spleen [1, 6]: 1.24 ± 0.34 % ID/g
% ID/g Spleen [1, 7]: 0.82 ± 0.09 % ID/g
% ID/g Stomach [1, 4]: 2.48 ± 0.62 % ID/g
% ID/g Stomach [1, 5]: 1.49 ± 0.62 % ID/g
% ID/g Stomach [1, 6]: 12.82 ± 7.46 % ID/g
% ID/g Stomach [1, 7]: 0.38 ± 0.05 % ID/g
Structure (SMILES): NC(CN1CCN(CC(=O)[O-])CCNCCN(CC(=O)[O-])CC1)C(=O)[O-].[68Ga+3] (centres unmarked) [^68Ga-DO2A-ala]
tumor cell uptake versus control agents [2]: significantly increase tumor cell uptakes
tumor uptake in PET images [3]: high tumor uptakes
